Legend:
Experiment in all cases: relative viability (nuclei count vs DMSO), 5 days (fraction); higher = more cells survive
IPA-3 + Navitoclax = compound: C1=CC=C2C(=C1)C=CC(=C2SSC3=C(C=CC4=CC=CC=C43)O)O [IPA-3] + CC1(C)CCC(c2ccc(Cl)cc2)=C(CN2CCN(c3ccc(C(=O)NS(=O)(=O)c4ccc(N[C@H](CCN5CCOCC5)CSc5ccccc5)c(S(=O)(=O)C(F)(F)F)c4)cc3)CC2)C1 [Navitoclax] (partner 0.5 µM)
How it was run: (§1)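 Relative viability is defined as nuclei in treated wells over nuclei in vehicle wells. Duplicate plates were run and medians reported. Lung cancer cell lines in 1536-well plates were dosed by pin tool one day after seeding, with one drug or with a fixed anchor-drug dose plus five library-drug doses (not always all listed) in √10 steps, and nuclei were counted after 5 days.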

Doramapimod + Luminespib = compound: Cc1ccc(-n2nc(C(C)(C)C)cc2NC(=O)Nc2ccc(OCCN3CCOCC3)c3ccccc23)cc1 [Doramapimod] + CCNC(=O)c1noc(-c2cc(C(C)C)c(O)cc2O)c1-c1ccc(CN2CCOCC2)cc1 [Luminespib] (partner 0.01 µM)
How it was run: as §1

Doramapimod + Pictilisib = compound: Cc1ccc(-n2nc(C(C)(C)C)cc2NC(=O)Nc2ccc(OCCN3CCOCC3)c3ccccc23)cc1 [Doramapimod] + CS(=O)(=O)N1CCN(Cc2cc3nc(-c4cccc5[nH]ncc45)nc(N4CCOCC4)c3s2)CC1 [Pictilisib] (partner 1 µM)
How it was run: as §1

| Cell Line | relative viability (IPA-3 + Navitoclax; first compound 0.2 µM) | relative viability (IPA-3 + Navitoclax; first compound 0.6325 µM) | relative viability (IPA-3 + Navitoclax; first compound 2 µM) | relative viability (IPA-3 + Navitoclax; first compound 6.325 µM) | relative viability (IPA-3 + Navitoclax; first compound 20 µM) | relative viability (Doramapimod + Luminespib; first compound 0.02 µM) | relative viability (Doramapimod + Luminespib; first compound 0.06325 µM) | relative viability (Doramapimod + Luminespib; first compound 0.2 µM) | relative viability (Doramapimod + Luminespib; first compound 0.6325 µM) | relative viability (Doramapimod + Luminespib; first compound 2 µM) | relative viability (Doramapimod + Pictilisib; first compound 0.02 µM) | relative viability (Doramapimod + Pictilisib; first compound 0.06325 µM) | relative viability (Doramapimod + Pictilisib; first compound 0.2 µM) | relative viability (Doramapimod + Pictilisib; first compound 0.6325 µM) | relative viability (Doramapimod + Pictilisib; first compound 2 µM) |
| --- | --- | --- | --- | --- | --- | --- | --- | --- | --- | --- | --- | --- | --- | --- | --- |
| LCLC-97TM1 | 0.599 | 0.4 | 0.36 | 0.359 | 0.451 | 0.789 | 0.689 | 0.795 | 0.705 | 0.537 | 0.195 | 0.162 | 0.177 | 0.18 | 0.206 |
| LCLC-103H | – | – | – | – | – | 0.927 | 0.99 | 0.884 | 1.08 | 0.925 | 0.57 | 0.633 | 0.64 | 0.789 | 0.521 |
| LK-2 | 0.983 | 0.881 | 0.81 | 1.05 | 1.17 | 0.219 | 0.202 | 0.177 | 0.158 | 0.169 | 0.538 | 0.545 | 0.464 | 0.368 | 0.349 |
| LOU-NH91 | 0.705 | 0.67 | 0.744 | 0.67 | 0.868 | 0.408 | 0.324 | 0.28 | 0.315 | 0.282 | 0.582 | 0.524 | 0.493 | 0.524 | 0.406 |
| LU99A | 0.866 | 0.86 | 0.819 | 0.781 | 0.889 | 0.26 | 0.239 | 0.239 | 0.199 | 0.24 | 0.348 | 0.303 | 0.311 | 0.307 | 0.263 |
| LXF-289 | 0.992 | 0.911 | 1.01 | 0.957 | 1.04 | 0.644 | 0.757 | 0.607 | 0.732 | 0.616 | 0.776 | 0.76 | 0.695 | 0.716 | 0.662 |
| NCI-H23 | 1.14 | 0.709 | 0.858 | 0.991 | 1.1 | 0.23 | 0.204 | 0.218 | 0.209 | 0.221 | 0.435 | 0.438 | 0.374 | 0.509 | 0.484 |
| NCI-H322M | 1.29 | 1.12 | 1.17 | 1.25 | 1.29 | 0.661 | 0.914 | 0.831 | 0.946 | 1.02 | 0.902 | 0.501 | 0.577 | 0.585 | 0.479 |
| NCI-H358 | – | – | – | – | – | 0.276 | 0.424 | 0.516 | 0.38 | 0.208 | 0.388 | 0.329 | 0.373 | 0.373 | 0.321 |
| NCI-H441 | 0.814 | – | 0.405 | 0.216 | 0.771 | 0.317 | 0.243 | 0.399 | – | 0.298 | 0.451 | 0.323 | 0.417 | 0.44 | 0.394 |
| NCI-H460 | 1.45 | 0.968 | 1.45 | 1.04 | 1.09 | 0.032 | 0.0205 | 0.0311 | 0.0341 | 0.0277 | 0.374 | 0.383 | 0.266 | 0.548 | 0.291 |
| NCI-H520 | 1.16 | 0.971 | 0.863 | 1.02 | 1.12 | 0.195 | 0.212 | 0.24 | 0.206 | 0.232 | 0.238 | 0.278 | 0.252 | 0.288 | 0.22 |
| NCI-H522 | – | – | – | – | – | 0.929 | 1.07 | 1 | 1.12 | 1.09 | – | – | – | – | – |
| NCI-H596 | 0.969 | 1.08 | 0.985 | 0.894 | 1.16 | 0.927 | 1 | 1 | 0.994 | 0.842 | 0.417 | 0.381 | 0.407 | 0.429 | 0.355 |
| NCI-H647 | 1.54 | 1.02 | 1.15 | 0.589 | 0.554 | 0.189 | 0.224 | 0.151 | 0.347 | 0.154 | 0.434 | 0.509 | 0.428 | 0.664 | 0.406 |
| NCI-H650 | – | – | – | – | – | 0.869 | 0.83 | 0.827 | 0.853 | 0.713 | 0.887 | 0.818 | 0.984 | 0.982 | 0.859 |
| NCI-H661 | – | – | – | – | – | 0.99 | 0.917 | 0.986 | 0.914 | 0.909 | 0.483 | 0.405 | 0.381 | 0.452 | 0.377 |
| NCI-H727 | 0.447 | 0.377 | 0.442 | 0.614 | 0.556 | 0.363 | 0.312 | 0.342 | 0.306 | 0.225 | 0.213 | 0.5 | 0.408 | 0.321 | 0.411 |
| NCI-H838 | 1.35 | 1.07 | 1.24 | 1.1 | 1.25 | 0.406 | 0.372 | 0.245 | 0.347 | 0.268 | 0.415 | 0.485 | 0.439 | 0.552 | 0.467 |
| NCI-H1299 | 1.08 | 1.08 | 1.03 | 1.01 | 1.03 | – | – | – | – | – | 0.769 | 0.444 | 0.751 | 0.597 | 0.521 |
| NCI-H1355 | 1.08 | 0.867 | 0.999 | 1.03 | 1.09 | 0.721 | 0.689 | 0.706 | 0.723 | 0.648 | 0.438 | 0.356 | 0.386 | 0.366 | 0.332 |
| NCI-H1395 | 1.13 | 1.05 | 1.13 | 1.16 | 1.57 | 0.621 | 0.605 | 0.641 | 0.79 | 0.679 | 0.567 | 0.599 | 0.601 | 0.624 | 0.545 |
| NCI-H1563 | – | – | – | – | – | 0.449 | 0.548 | 0.535 | 0.48 | 0.481 | 0.677 | 0.633 | 0.634 | 0.724 | 0.645 |
| NCI-H1623 | – | – | – | – | – | 0.555 | 0.505 | 0.52 | 0.571 | 0.464 | – | – | – | – | – |
| NCI-H1703 | 1.71 | 0.991 | 1.05 | 1.13 | 0.765 | – | – | – | – | – | 0.234 | 0.226 | 0.236 | 0.248 | 0.215 |
| NCI-H2342 | – | – | – | – | – | 0.67 | 0.749 | 0.701 | 0.852 | 0.725 | – | – | – | – | – |
| SW 900 | – | – | – | – | – | 0.169 | 0.185 | 0.162 | 0.155 | 0.165 | – | – | – | – | – |

From the supplement of paper PMC10307832
